The record followed here is US20110046235A1, “PRODUCTS COMPRISING, AND USES OF, DECARBOXYLATED PHENOLIC ACIDS DERIVED FROM CHLOROGENIC ACIDS OF COFFEE” (NESTEC S.A., priority 2008, published 2011).

In experiment [1] the test system is PGE2 production in HT-29 cells. Description: Prostaglandin E2 formation assay. As to conditions: 15 h then 6 h with TNF-α 10 ng/ml. In kind it is cell-based, human. The method, then: Human colon HT-29 cells were treated with 4-vinylcatechol for 15 h followed by a co-incubation of 6 h together with a pro-inflammatory agent TNF-α (10 ng/ml). Analysis of the PGE2 production in HT-29 cells was determined using a competitive enzyme immunoassay (EIA) (Cavin et al., BBRC 327, 742-49, 2005).

Experiment [2] deals with Nrf2. Description: Antioxidant Responsive Element (ARE) luciferase assay. In kind it is cell-based, human. The conditions noted are these: 24 h, AREc 32 (MCF7) cells. An excerpt:
The pGL-8×ARE which contains eight copies of the ARE present in rat glutathione-S-transferase A2 (GSTA2) along with the pcDNA3.1 plasmid containing the neomycin selectable marker was stably transfected into human MCF7 cells (Wang et al., Cancer Res. 66, 10983-10994, 2006). ARE (antioxidant-responsive element) is the binding site of the transcription factor Nrf2 which regulates the genes involved in detoxification and endogenous defence against oxidative stress. The plasmid pGL-8×ARE contains a luciferase gene downstream of the eight Nrf2 binding sites that allows monitoring Nrf2 activity. The AREc 32 cells were seeded in 96-well microtiter plates in DMEM growth medium. After treatment with 4-vinylcatechol for 24 h firefly luciferase activity was determined.

SMILES strings stand for the structures.

On to `C=Cc1ccc(O)c(O)c1` [4-vinylcatechol], for which the PGE2 formation is given as 58 % of control in experiment [1] (4-vinylcatechol 3.13 μg/ml); 46 % of control in experiment [1] (4-vinylcatechol 6.25 μg/ml); 21 % of control in experiment [1] (4-vinylcatechol 9.38 μg/ml); 12 % of control in experiment [1] (4-vinylcatechol 15.63 μg/ml); 5 % of control in experiment [1] (4-vinylcatechol 31.25 μg/ml); 2 % of control in experiment [1] (4-vinylcatechol 62.5 μg/ml). Besides, the “firefly luciferase activity (induction of Nrf2 activity)” value is 16 AU in experiment [2] (4-vinylcatechol 200 μg/ml), 41 AU in experiment [2] (4-vinylcatechol 400 μg/ml) and 22 AU in experiment [2] (4-vinylcatechol 600 μg/ml).
